Data published in patent US8193191B2, “Urotensin II receptor antagonists” (Janssen Pharmaceutica N.V., priority 2006, dated 2012).
pIC50, pKi: −log10 of the molar value. Like-named read-outs stand apart in the source and are kept apart here.

Assays:
[1] = target: T1, rat GPR14 (U-II receptor) (Rattus norvegicus, UniProt P49684); test: Rat UII Calcium Mobilization FLIPR Assay; assay type: cell-based; conditions: average value for the compound tested; read-out: Rat UII FLIPR Average IC50
T1 construct: expressed in transfected cells
T1 sequence (P49684 1-386): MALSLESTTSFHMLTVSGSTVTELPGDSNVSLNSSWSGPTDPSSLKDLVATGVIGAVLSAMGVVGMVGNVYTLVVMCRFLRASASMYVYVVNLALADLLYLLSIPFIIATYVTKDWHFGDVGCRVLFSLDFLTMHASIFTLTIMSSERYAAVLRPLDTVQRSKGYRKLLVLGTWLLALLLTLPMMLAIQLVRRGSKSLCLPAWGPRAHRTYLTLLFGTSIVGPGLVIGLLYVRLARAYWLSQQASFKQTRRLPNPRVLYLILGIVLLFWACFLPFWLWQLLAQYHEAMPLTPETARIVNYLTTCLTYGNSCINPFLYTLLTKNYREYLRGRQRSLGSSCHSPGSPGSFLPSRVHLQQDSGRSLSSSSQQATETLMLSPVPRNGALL
How it was run: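 CHO cells stably expressing rat U-II receptor, seeded 24 h before assay, were loaded with FLIPR calcium dye in HBSS/20 mM HEPES/0.1% BSA/2.5 mM probenecid, pH 7.4, for 1 h at 37° C. Calcium mobilization then read by FLIPR at 23° C.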

[2] = target: T2, Human UII receptor, 6D9 human rhabdomyosarcoma cells (Homo sapiens, UniProt Q9UKP6); test: Human UII Calcium Mobilization Assay; assay type: cell-based; conditions: average value, FLIPR TETRA, read-out: Human UII Ca^+ Mobilization Average IC50
T2 construct: 6D9: isolated by dilution subcloning of RMS13 cells, ATCC® Number: CRL-2061; host or cells: 6D9 human rhabdomyosarcoma cells (subclone of RMS13)
T2 sequence (Q9UKP6 1-389): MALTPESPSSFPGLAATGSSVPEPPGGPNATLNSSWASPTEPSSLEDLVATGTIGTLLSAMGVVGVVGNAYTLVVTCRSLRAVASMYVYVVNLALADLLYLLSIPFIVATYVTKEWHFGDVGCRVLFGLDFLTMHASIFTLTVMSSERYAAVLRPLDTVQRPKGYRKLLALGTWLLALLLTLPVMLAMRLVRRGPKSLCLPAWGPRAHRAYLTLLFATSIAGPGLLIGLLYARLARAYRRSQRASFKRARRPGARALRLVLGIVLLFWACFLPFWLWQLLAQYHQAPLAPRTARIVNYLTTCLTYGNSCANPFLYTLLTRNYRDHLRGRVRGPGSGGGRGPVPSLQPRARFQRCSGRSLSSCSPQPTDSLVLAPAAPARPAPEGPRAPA
How it was run: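 6D9 rhabdomyosarcoma cells loaded 45 min at 37° C with calcium dye (1.25 mM probenecid, 0.01% FBS, HBSS/20 mM HEPES). Antagonist and U-II agonist added at room temperature; FLIPR fluorescence read over 4 min; EC50/IC50 fitted. DMSO ≤0.1% final.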

[3] = target: T3, endogenous human UII receptor (Homo sapiens, UniProt Q9UKP6); test: Human Radioligand Binding Assay ((^125I)-U-II binding to human skeletal muscle myoblasts)
T3 sequence (Q9UKP6 1-389): T2 sequence (Q9UKP6 1-389)

[4] = read-out: Human UII Average Binding Ki, average value, (^125I)-U-II binding to human skeletal muscle myoblasts (HSMM), 25° C., 3 h

Row | Compound | pIC50 [1] | pIC50 [2] | pKi [3] | pKi [3, 4]
1 | COc1ccc(CC(c2ccc(OC)c(OC)c2)N2C(=O)c3cccc(N4CCN([C@H](C)c5ccccc5)CC4)c3C2=O)cc1OC (stereo partly drawn) [Cpd 123, 2-[1,2-bis-(3,4-dimethoxy-phenyl)-ethyl]-4-[4-(1R)-(1-phenyl-ethyl)-piperazin-1-yl]-isoindole-1,3-dione] | 6.60 | 5.51 | 6.24 | 
2 | COc1ccc([C@@H](CCCNS(=O)(=O)c2sc(C)nc2C)N2C(=O)c3cccc(N4CCN([C@H](C)c5ccccc5)CC4)c3C2=O)cc1OC [Cpd 124, (R)-2,4-dimethyl-thiazole-5-sulfonic acid (4-(3,4-dimethoxy-phenyl)-4-{1,3-dioxo-4-[4-(1R)-(1-phenyl-ethyl)-piperazin-1-yl]-1,3-dihydro-isoindol-2-yl}-butyl)-amide] | 7.55 | 6.52 | 6.49 | 
3 | COc1ccc([C@@H](CCCNS(=O)(=O)c2c(C)n[nH]c2C)N2C(=O)c3cccc(N4CCN([C@H](C)c5ccccc5)CC4)c3C2=O)cc1OC [Cpd 125, (R)-3,5-dimethyl-1H-pyrazole-4-sulfonic acid (4-(3,4-dimethoxy-phenyl)-4-{1,3-dioxo-4-[4-(1R)-(1-phenyl-ethyl)-piperazin-1-yl]-1,3-dihydro-isoindol-2-yl}-butyl)-amide] | 7.96 | 7.33 |  | 7.89
4 | COc1ccc([C@@H](CCCNS(=O)(=O)c2cn(C)nc2C)N2C(=O)c3cccc(N4CCN([C@H](C)c5ccccc5)CC4)c3C2=O)cc1OC [Cpd 128, (R)-1,3-dimethyl-1H-pyrazole-4-sulfonic acid (4-(3,4-dimethoxy-phenyl)-4-{1,3-dioxo-4-[4-(1R)-(1-phenyl-ethyl)-piperazin-1-yl]-1,3-dihydro-isoindol-2-yl}-butyl)-amide] | 8.05 | 6.55 | 6.96 | 
5 | COc1ccc([C@@H](CCCNS(=O)(=O)O)N2C(=O)c3cccc(N4CCN([C@H](C)c5ccccc5)CC4)c3C2=O)cc1OC [Cpd 129, (R)-(4-(3,4-dimethoxy-phenyl)-4-{1,3-dioxo-4-[4-(1R)-(1-phenyl-ethyl)-piperazin-1-yl]-1,3-dihydro-isoindol-2-yl}-butyl)-sulfamic acid] | 8.03 | 6.80 | 8.05 | 
6 | COc1ccc([C@@H](CCCNS(=O)(=O)c2cnn(C)c2C)N2C(=O)c3cccc(N4CCN([C@H](C)c5ccccc5)CC4)c3C2=O)cc1OC [Cpd 132, (R)-1,5-dimethyl-1H-pyrazole-4-sulfonic acid (4-(3,4-dimethoxy-phenyl)-4-{1,3-dioxo-4-[4-(1R)-(1-phenyl-ethyl)-piperazin-1-yl]-1,3-dihydro-isoindol-2-yl}-butyl)-amide] | 8.01 | 6.47 | 7.14 | 
7 | COc1ccc([C@@H](CCCNS(=O)(=O)c2cnn(C)c2)N2C(=O)c3cccc(N4CCN([C@H](C)c5ccccc5)CC4)c3C2=O)cc1OC [Cpd 136, (R)-1-methyl-1H-pyrazole-4-sulfonic acid (4-(3,4-dimethoxy-phenyl)-4-{1,3-dioxo-4-[4-(1R)-(1-phenyl-ethyl)-piperazin-1-yl]-1,3-dihydro-isoindol-2-yl}-butyl)-amide] | 8.21 | 6.44 | 7.21 | 
8 | COc1ccc([C@@H](CCCNS(=O)(=O)c2cnoc2C)N2C(=O)c3cccc(N4CCN([C@H](C)c5ccccc5)CC4)c3C2=O)cc1OC [Cpd 138, (R)-5-methyl-isoxazole-4-sulfonic acid (4-(3,4-dimethoxy-phenyl)-4-{1,3-dioxo-4-[4-(1R)-(1-phenyl-ethyl)-piperazin-1-yl]-1,3-dihydro-isoindol-2-yl}-butyl)-amide] | 7.70 | 6.89 |  | 7.49
9 | COc1ccc([C@@H](CCCNS(=O)(=O)c2c(C)noc2C)N2C(=O)c3cccc(N4CCN([C@H](C)c5ccccc5)CC4)c3C2=O)cc1OC [Cpd 139, (R)-3,5-dimethyl-isoxazole-4-sulfonic acid (4-(3,4-dimethoxy-phenyl)-4-{1,3-dioxo-4-[4-(1R)-(1-phenyl-ethyl)-piperazin-1-yl]-1,3-dihydro-isoindol-2-yl}-butyl)-amide] | 7.54 | 6.54 | 7.34 | 
10 | COc1ccc([C@@H](CCCNS(=O)(=O)c2cn(C)c(C)n2)N2C(=O)c3cccc(N4CCN([C@H](C)c5ccccc5)CC4)c3C2=O)cc1OC [Cpd 140, (R)-1,2-dimethyl-1H-imidazole-4-sulfonic acid (4-(3,4-dimethoxy-phenyl)-4-{1,3-dioxo-4-[4-(1R)-(1-phenyl-ethyl)-piperazin-1-yl]-1,3-dihydro-isoindol-2-yl}-butyl)-amide] | 7.85 | 6.66 |  | 7.80
11 | COc1ccc([C@@H](CCCNC(=O)c2cnoc2C)N2C(=O)c3cccc(N4CCN([C@H](C)c5ccccc5)CC4)c3C2=O)cc1OC [Cpd 144, (R)-5-methyl-isoxazole-4-carboxylic acid (4-(3,4-dimethoxy-phenyl)-4-{1,3-dioxo-4-[4-(1R)-(1-phenyl-ethyl)-piperazin-1-yl]-1,3-dihydro-isoindol-2-yl}-butyl)-amide] | 7.96 | 6.12 |  | 6.89
12 | COc1ccc([C@@H](CCCNc2ncccn2)N2C(=O)c3cccc(N4CCN([C@H](C)c5ccccc5)CC4)c3C2=O)cc1OC [Cpd 145, (R)-2-[1-(3,4-dimethoxy-phenyl)-4-(pyrimidin-2-ylamino)-butyl]-4-[4-(1R)-(1-phenyl-ethyl)-piperazin-1-yl]-isoindole-1,3-dione] | 7.80 | 6.12 | 6.92 | 
13 | COc1ccc([C@@H](CCCNC(=N)N)N2C(=O)c3cccc(N4CCN([C@H](C)c5ccccc5)CC4)c3C2=O)cc1OC [Cpd 146, (R)-N-(4-(3,4-dimethoxy-phenyl)-4-{1,3-dioxo-4-[4-(1R)-(1-phenyl-ethyl)-piperazin-1-yl]-1,3-dihydro-isoindol-2-yl}-butyl)-guanidine] | 7.54 | 5.57 | 6.19 | 
14 | COc1ccc([C@@H](CCCNC(=O)c2cccn2C)N2C(=O)c3cccc(N4CCN([C@H](C)c5ccccc5)CC4)c3C2=O)cc1OC [Cpd 147, (R)-1-methyl-1H-pyrrole-2-carboxylic acid (4-(3,4-dimethoxy-phenyl)-4-{1,3-dioxo-4-[4-(1R)-(1-phenyl-ethyl)-piperazin-1-yl]-1,3-dihydro-isoindol-2-yl}-butyl)-amide] | 7.49 | 5.68 | 6.80 | 
15 | COc1ccc([C@@H](CCCNC(=O)c2ccc(S(N)(=O)=O)n2C)N2C(=O)c3cccc(N4CCN([C@H](C)c5ccccc5)CC4)c3C2=O)cc1OC [Cpd 148, (R)-1-methyl-5-sulfamoyl-1H-pyrrole-2-carboxylic acid (4-(3,4-dimethoxy-phenyl)-4-{1,3-dioxo-4-[4-(1R)-(1-phenyl-ethyl)-piperazin-1-yl]-1,3-dihydro-isoindol-2-yl}-butyl)-amide] | 7.74 | 5.96 | < 6.70 | 
16 | COc1ccc([C@@H](CCCNC(=O)[C@H]2CCCN2C(C)=O)N2C(=O)c3cccc(N4CCN([C@H](C)c5ccccc5)CC4)c3C2=O)cc1OC [Cpd 149, (R)-1-acetyl-pyrrolidine-2-carboxylic acid (R)-(4-(3,4-dimethoxy-phenyl)-4-{1,3-dioxo-4-[4-(1R)-(1-phenyl-ethyl)-piperazin-1-yl]-1,3-dihydro-isoindol-2-yl}-butyl)-amide] | 7.82 | 6.12 | 7.15 | 
17 | COc1ccc([C@@H](CCCNC(=O)c2ccccn2)N2C(=O)c3cccc(N4CCN([C@H](C)c5ccccc5)CC4)c3C2=O)cc1OC [Cpd 150, (R)-pyridine-2-carboxylic acid (4-(3,4-dimethoxy-phenyl)-4-{1,3-dioxo-4-[4-(1R)-(1-phenyl-ethyl)-piperazin-1-yl]-1,3-dihydro-isoindol-2-yl}-butyl)-amide] | 7.42 | 6.07 | 7.13 | 
